pIC50: −log10 of the molar value. Read-outs that look alike come from different tables or passages of the source.
Assays:
[1] = target: T1, NS5B from the BK strain (genotype 1b) (Hepatitis C virus genotype 1b, UniProt P26663); assay: Hepatitis C polymerase inhibition, NS5B BK strain, 33P-GTP filter assay; format: biochemical; conditions: NS5B BK strain
T1 construct: NS5B from the BK strain (genotype 1b) is expressed in E. coli as a protein in which the 21 C-terminal amino acids are replaced; made in house; host or cells: E. coli
T1 sequence (P26663 2420-2989): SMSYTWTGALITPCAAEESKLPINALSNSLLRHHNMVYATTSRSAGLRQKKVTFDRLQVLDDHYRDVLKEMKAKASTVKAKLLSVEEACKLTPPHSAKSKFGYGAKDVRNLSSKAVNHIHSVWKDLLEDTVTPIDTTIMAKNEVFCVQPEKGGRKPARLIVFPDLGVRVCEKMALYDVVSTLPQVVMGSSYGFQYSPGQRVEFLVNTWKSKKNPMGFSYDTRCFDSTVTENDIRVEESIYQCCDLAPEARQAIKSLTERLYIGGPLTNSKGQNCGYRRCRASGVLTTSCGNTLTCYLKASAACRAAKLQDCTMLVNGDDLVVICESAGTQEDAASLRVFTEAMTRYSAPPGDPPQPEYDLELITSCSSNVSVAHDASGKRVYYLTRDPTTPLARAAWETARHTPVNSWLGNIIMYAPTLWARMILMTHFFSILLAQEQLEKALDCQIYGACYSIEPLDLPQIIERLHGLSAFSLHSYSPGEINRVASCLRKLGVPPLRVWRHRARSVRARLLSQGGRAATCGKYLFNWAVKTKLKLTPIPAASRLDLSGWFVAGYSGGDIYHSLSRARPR
How it was run: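 Radiolabelled RNA synthesis was measured by filter capture and scintillation counting after EDTA stop. His-tagged, C-terminally truncated (Δ21) genotype 1b BK NS5B from E. coli, pre-exposed to compound for 15 min, copied a self-primed RNA template (~3 nM) with α-[33P]-GTP for 2 h at room temperature.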

[2] = target: BB7 (RNA-dependent RNA polymerase hepatitis C virus protein sequence derived from HCV replicon) (Hepatitis C virus genotype 1b, UniProt Q9WMX2); assay: Hepatitis C polymerase inhibition, BB7 sequence; format: biochemical; conditions: Table 1B
Sequence of BB7 (RNA-dependent RNA polymerase hepatitis C virus protein sequence derived from HCV replicon) (Q9WMX2 2420-3010): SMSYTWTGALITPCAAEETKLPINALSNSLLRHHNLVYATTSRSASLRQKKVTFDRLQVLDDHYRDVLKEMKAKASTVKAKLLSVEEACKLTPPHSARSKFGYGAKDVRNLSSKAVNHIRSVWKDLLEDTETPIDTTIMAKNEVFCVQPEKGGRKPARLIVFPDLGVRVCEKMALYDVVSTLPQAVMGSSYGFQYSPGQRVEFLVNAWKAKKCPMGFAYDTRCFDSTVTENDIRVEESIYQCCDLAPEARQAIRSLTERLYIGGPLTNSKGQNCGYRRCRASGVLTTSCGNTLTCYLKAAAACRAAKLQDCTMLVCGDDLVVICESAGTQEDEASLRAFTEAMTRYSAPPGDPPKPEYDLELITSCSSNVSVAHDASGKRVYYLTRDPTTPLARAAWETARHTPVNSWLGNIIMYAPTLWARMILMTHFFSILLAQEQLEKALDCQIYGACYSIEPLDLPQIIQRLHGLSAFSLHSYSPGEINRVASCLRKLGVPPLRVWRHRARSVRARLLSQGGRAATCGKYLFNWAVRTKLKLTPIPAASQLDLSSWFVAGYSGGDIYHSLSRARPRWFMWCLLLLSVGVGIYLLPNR

Compound | pIC50 ([1]; Table 1A, read-out: HCV pol BK IC50) | melting point [°C] | pIC50 [2] | pIC50 ([1]; Table 1B, read-out: BK IC50)
CCCC1(CC(=O)O)OCCc2c1[nH]c1c(F)ccc(C(=O)N3CCOCC3)c21 (stereo not shown) [Example 225, [8-Fluoro-5-(morpholine-4-carbonyl)-1-propyl-1,3,4,9-tetrahydro-pyrano[3,4-b]indol-1-yl]-acetic Acid] | < 4.70 | 98 to 100 | – | –
CCCC1(CC(=O)O)OCCc2c1[nH]c1c(C)c(OCCC(C)(C)C)cc(C#N)c21 (stereo not shown) [Example 366, [5-cyano-7-(3,3-dimethyl-butoxy)-8-methyl-1-propy-1,3,4,9-tetrahydro-pyrano[3,4-b]indol-1-yl]-acetic acid] | – | – | 6.26 | 5.77
CCCC1(CC(=O)O)OCCc2c1[nH]c1c(C)c(OCc3cccc(F)c3)cc(C#N)c21 (stereo not shown) [Example 367, [5-cyano-7-(3-fluoro-benzyloxy)-8-methyl-1-propyl-1,3,4,9-tetrahydro-pyrano[3,4-b]indol-1-yl]acetic acid] | – | – | 7.05 | 7.10
CCCC1(CC(=O)O)OCCc2c1[nH]c1c(C)c(OCc3ccccc3)cc(C#N)c21 (stereo not shown) [Example 368, (7-benzyloxy-5-cyano-8-methyl-1-propyl-1,3,4,9-tetrahydro-pyrano[3,4-b]indol-1-yl)-acetic acid] | – | – | 6.89 | 6.96
CCCC1(CC(=O)O)OCCc2c1[nH]c1c(C)c(OCCF)cc(C#N)c21 (stereo not shown) [Example 369, [5-cyano-7-(2-fluoro-ethoxy)-8-methyl-1-propyl-1,3,4,9-tetrahydro-pyrano[3,4-b]indol-1-yl]acetic acid] | – | – | 8.00 | 8.40
CCCC1(CC(=O)O)OCCc2c1[nH]c1c(C)c(OCCCF)cc(C#N)c21 (stereo not shown) [Example 370, [5-cyano-7-(3-fluoro-propoxy)-8-methyl-1-propyl-1,3,4,9-tetrahydro-pyrano[3,4-b]indol-1-yl]acetic acid] | – | – | 7.52 | 7.40
(5-cyano-7-ethoxy-8-methyl-1-propyl-1,3,4,9-tetrahydro-pyrano[3,4-b]indol-1-yl)-acetic acid [Example 362] | – | – | 7.15 | 6.96
(8-cyano-1-cyclobutyl-5-trifluoromethyl-1,3,4,9-tetrahydropyrano[3,4-b]indol-1-yl)acetic acid [Example 277] | – | – | 5.21 | 5.59
(8-fluoro-5-nitro-1-propyl-1,3,4,9-tetrahydropyrano[3,4-b]indol-1-yl)carboxylic acid [Example 352] | – | – | 5.55 | 6.05
[5-cyano-1-(1-ethylethyl)-8-fluoro-1,3,4,9-tetrahydropyrano[3,4-b]indol-1-yl]acetic acid [Example 311] | – | – | < 4.52 | < 4.52
[5-cyano-1-(1-ethylethyl)-8-methyl-1,3,4,9-tetrahydropyrano[3,4-b]indol-1-yl]acetic acid [Example 294] | – | – | < 4.52 | < 4.52

Source: patent publication US7217730B2, “Method for the use of pyranoindole derivatives to treat infection with Hepatitis C virus” (Wyeth, priority 2002, dated 2007)
